From ChEMBL document CHEMBL1201862, “PubChem BioAssay data set” (2004) come the findings set out here.

Among the targets are Cytochrome P450 3A4 (Homo sapiens, UniProt P08684); Cytochrome P450 2C9 (Homo sapiens, UniProt P11712); Cytochrome P450 2D6 (Homo sapiens, UniProt P10635).
Test [1] is described as follows: inhibitors of firefly luciferase expression or activity, dose response, H4 neuroglioma cells, luminescence (AID 1990). Format: functional, cell-based.
Test [2] in a line: Luminescence Cell-Based Dose Response HTS to Identify Inhibitors of 5'UTR Stem-Loop Driven Prion Protein mRNA Translation in H4 Neuroglioblastoma Cells. [Related pubchem assays: 1827 (Project Summary), 1813 (Primary HTS)]. Format: functional.
The nature of test [3]: inhibitors of SNCA 5'UTR-driven reporter translation, confirmation, H4 neuroglioma cells, luminescence (AID 1988). Format: functional, cell-based.
The nature of test [4]: Luminescence Cell-Based Dose Retest to Confirm Inhibitors of Cancer Stem Cells. [Related pubchem assays (depositor defined):AID2717, AID2721]. Format: functional. The following applies: Homo sapiens.
Test [5] concerns the target T1, Rac GTPase-activating protein 1 (Homo sapiens, UniProt Q9H0H5).
T1 sequence (Q9H0H5 whole entry): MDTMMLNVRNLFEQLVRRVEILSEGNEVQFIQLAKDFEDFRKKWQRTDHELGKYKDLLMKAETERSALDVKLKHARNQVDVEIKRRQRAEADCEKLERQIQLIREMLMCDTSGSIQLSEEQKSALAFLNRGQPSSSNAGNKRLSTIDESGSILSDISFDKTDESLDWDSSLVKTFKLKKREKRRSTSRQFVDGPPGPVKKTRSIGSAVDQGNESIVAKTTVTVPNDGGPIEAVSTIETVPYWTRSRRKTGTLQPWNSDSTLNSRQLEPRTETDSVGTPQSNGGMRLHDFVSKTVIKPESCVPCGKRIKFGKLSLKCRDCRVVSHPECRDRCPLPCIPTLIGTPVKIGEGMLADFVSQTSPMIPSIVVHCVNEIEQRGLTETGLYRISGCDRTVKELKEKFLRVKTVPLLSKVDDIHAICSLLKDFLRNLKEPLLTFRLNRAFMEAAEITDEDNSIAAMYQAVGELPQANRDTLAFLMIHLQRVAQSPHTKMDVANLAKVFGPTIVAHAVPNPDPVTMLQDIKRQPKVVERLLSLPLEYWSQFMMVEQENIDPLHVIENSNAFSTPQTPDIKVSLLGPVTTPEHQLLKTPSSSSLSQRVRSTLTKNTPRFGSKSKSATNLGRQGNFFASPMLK
Description: MgcRacGAP GTPase-activating activity inhibitors, confirmation, biochemical, ADP Hunter fluorescence, primary and confirmatory (AID 624330). Format: functional.

The target of a further test is T2, Cytochrome P450 1A2 (Homo sapiens, UniProt P05177).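 Further: PubChem cytochrome P450 panel assay, CYP1A2 panel member.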
T2 sequence (P05177 whole entry): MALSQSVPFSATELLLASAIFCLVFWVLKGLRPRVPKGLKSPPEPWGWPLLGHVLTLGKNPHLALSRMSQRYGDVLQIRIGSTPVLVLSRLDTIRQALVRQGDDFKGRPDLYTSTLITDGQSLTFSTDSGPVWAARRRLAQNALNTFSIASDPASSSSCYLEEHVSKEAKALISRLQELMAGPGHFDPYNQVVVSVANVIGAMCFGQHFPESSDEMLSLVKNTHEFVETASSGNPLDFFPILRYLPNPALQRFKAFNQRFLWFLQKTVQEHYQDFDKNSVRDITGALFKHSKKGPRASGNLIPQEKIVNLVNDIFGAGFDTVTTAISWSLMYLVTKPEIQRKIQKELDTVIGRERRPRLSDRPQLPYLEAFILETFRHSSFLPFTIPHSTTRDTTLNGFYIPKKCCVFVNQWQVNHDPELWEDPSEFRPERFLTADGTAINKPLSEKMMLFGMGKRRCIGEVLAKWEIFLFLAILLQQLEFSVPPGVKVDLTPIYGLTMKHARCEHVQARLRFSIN

A short description of test [6]: inhibitors of intracellular T. cruzi replication, confirmation, NIH3T3 host cells, beta-gal luminescence (AID 2044).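 Further: intracellular parasites grown in NIH/3T3 mouse fibroblasts as host cells; luminescent beta-galactosidase reporter signal from transgenic T. cruzi replicating inside host cells; inhibitors lower the luminescence signal.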 Format: functional, cell-based.
Test [7] in a line: HEp-2 cell cytotoxicity, dose response, cytotoxicity control for RSV inhibitor project, HTS (AID 2410). Format: functional. The following applies: human respiratory syncytial virus.
Test [8] in a line: cytotoxicity toward NIH3T3 fibroblasts, dose response, counter-screen, cell-based, ATP luminescence, mouse fibroblasts (AID 2010).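 Further: cells exposed to compound for about 90 hours before reading.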 Format: functional. A general note: The purpose of a counterscreen is to sort out artefacts and off-target activity.
A further test deals with Cytochrome P450 2C19 (Homo sapiens, UniProt P33261). Description: Cytochrome panel assay with activity outcomes. Panel member name: p450-cyp2c19 Compounds with AC50 equal or less than 10 uM are considered active. Format: functional. The following applies: read-out: AC50.
For test [9], the target named is T3, RNA-binding protein pos-1 (Caenorhabditis elegans, UniProt G5EF15).
T3 sequence (G5EF15 whole entry): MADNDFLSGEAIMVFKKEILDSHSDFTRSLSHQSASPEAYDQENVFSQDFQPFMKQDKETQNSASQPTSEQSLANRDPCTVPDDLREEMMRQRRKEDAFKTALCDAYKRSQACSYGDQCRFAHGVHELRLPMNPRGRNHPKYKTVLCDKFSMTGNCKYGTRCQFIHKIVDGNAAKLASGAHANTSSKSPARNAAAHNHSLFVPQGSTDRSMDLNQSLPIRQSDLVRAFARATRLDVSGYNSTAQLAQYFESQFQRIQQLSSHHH
The test can be described thus: inhibitors of POS-1/mex-3 RNA binding, dose response, biochemical, fluorescence polarization (AID 1964).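 Further: purified POS-1 fused to maltose binding protein made in E. coli; potency of compounds blocking POS-1 binding to fluorescent RNA.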 Background: In fluorescence polarisation assays a small probe gives low polarisation when free and higher when bound to something large.

The target of test [10] is T4, Zinc finger protein mex-5 (Caenorhabditis elegans, UniProt Q9XUB2).
T4 sequence (Q9XUB2 whole entry): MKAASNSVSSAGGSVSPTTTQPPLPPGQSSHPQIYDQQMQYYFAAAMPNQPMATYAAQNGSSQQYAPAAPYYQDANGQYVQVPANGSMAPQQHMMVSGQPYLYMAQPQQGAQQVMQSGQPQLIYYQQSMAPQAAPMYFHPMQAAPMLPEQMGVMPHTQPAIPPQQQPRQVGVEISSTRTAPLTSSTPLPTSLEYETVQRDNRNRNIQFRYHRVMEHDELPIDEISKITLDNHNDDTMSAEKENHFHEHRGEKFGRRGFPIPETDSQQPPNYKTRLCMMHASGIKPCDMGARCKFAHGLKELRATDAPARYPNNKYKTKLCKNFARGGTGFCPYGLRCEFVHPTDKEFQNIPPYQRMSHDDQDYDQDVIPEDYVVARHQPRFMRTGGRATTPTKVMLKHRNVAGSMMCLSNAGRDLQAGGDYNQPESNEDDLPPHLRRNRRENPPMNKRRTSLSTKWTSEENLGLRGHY
Description: MEX-5/TCR-2 RNA interaction inhibitors, dose response, biochemical, C. elegans, fluorescence polarization (AID 1960).

The next test relates to H4. The test can be described thus: Luminescence Cell-Based Dose Response HTS to Identify Activators of 5'UTR Stem-Loop Driven Prion Protein mRNA Translation in H4 Neuroglioblastoma Cells. [Related pubchem assays: 1829 (Project Summary), 1814 (Primary HTS)]. Format: functional. The conditions noted are these: Homo sapiens.

Calls of active or inactive are those of the source.

Sequence of Cytochrome P450 2C9 (P11712 whole entry): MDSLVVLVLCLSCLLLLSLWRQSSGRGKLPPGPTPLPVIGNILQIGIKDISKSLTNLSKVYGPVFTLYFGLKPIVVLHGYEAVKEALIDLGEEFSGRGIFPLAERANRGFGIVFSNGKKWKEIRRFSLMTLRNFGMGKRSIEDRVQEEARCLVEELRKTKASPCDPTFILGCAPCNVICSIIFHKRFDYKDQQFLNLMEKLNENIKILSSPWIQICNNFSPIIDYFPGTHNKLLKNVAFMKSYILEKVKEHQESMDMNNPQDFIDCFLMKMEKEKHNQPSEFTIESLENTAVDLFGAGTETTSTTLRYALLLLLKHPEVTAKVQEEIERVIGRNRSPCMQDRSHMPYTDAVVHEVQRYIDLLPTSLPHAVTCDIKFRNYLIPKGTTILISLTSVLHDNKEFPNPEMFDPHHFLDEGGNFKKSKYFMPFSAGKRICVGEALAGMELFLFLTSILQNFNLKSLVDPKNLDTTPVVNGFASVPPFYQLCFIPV
Sequence of Cytochrome P450 3A4 (P08684 whole entry): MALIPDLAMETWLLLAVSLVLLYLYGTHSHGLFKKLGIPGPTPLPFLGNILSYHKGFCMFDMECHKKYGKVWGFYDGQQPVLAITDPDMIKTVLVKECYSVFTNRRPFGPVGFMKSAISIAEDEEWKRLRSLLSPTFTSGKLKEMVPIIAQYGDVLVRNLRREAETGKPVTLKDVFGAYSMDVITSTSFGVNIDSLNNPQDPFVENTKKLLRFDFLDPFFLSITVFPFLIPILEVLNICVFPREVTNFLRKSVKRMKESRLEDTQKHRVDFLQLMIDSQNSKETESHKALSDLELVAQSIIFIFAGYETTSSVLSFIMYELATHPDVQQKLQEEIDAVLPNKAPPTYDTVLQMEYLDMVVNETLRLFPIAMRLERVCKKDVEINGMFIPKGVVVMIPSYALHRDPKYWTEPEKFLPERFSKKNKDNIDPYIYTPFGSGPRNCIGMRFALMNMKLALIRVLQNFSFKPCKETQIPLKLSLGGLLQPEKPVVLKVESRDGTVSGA
Sequence of Cytochrome P450 2C19 (P33261 whole entry): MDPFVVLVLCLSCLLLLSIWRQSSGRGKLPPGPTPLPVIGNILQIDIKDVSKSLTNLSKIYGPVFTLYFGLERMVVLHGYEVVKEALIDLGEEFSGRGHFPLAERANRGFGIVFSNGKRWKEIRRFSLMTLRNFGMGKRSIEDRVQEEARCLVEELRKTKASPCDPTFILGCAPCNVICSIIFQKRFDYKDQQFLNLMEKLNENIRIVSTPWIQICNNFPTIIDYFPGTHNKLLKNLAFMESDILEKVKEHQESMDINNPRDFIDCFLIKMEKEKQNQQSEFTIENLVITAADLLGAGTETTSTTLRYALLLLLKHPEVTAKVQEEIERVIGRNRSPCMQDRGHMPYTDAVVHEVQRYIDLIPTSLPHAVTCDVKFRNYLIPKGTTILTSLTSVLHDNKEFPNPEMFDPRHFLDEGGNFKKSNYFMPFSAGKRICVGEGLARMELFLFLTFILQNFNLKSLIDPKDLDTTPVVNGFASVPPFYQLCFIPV
Sequence of Cytochrome P450 2D6 (P10635 whole entry): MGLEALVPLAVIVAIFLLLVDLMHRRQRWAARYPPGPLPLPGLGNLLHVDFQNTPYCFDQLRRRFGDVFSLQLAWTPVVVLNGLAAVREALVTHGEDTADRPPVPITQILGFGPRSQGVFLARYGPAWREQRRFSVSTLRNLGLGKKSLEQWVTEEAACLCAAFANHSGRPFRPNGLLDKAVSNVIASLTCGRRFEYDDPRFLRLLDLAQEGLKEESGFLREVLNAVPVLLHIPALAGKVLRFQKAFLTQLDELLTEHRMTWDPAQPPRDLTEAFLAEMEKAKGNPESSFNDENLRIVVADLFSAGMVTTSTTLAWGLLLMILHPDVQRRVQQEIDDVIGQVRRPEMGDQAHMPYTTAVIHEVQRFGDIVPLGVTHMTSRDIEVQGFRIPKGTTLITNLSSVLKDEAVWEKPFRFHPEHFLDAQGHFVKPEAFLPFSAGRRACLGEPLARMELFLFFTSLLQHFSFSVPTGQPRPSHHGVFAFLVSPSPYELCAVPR

By AC50 is commonly meant the midpoint of the concentration-response curve, whichever way the signal moves. As to `N#Cc1ccc(CN2CCC3(CC2)CCN(C(=O)c2ccncc2)CC3)cc1`, the AC50 at Cytochrome P450 3A4 was 12.6 µM (inconclusive).

One may read the EC50 as the midpoint of the concentration-response curve. With `S=C(NCc1ccccc1)NCc1ccc(CNC(=S)NCc2ccccc2)cc1`, the EC50 in test [1], in test [2] and in [3] was > 120 µM (not active) throughout.

As for `CCS(=O)(=O)c1nc(S(=O)(=O)c2ccc(C)cc2)c(N2CC(C)CC(C)C2)s1` (centres undefined), the EC50 in test [1], in [2] and in test [3] was > 120 µM (not active) each time.

As to `COc1cc(/C=N/NC(=O)c2ccc(CN(C)S(=O)(=O)c3ccc(C)cc3)cc2)ccc1O`, in test [4], the AC50 is 2.5 µM (active).

For orientation: IC50 means the concentration at which inhibition is half-maximal. In the case of `CCOC(=O)N/N=C/c1ccc(N2CCOCC2)s1`, in test [5], the IC50 was 52.6 µM (active).

Regarding `O=c1c2[nH]cnc2n(-c2ccc(F)cc2)c(=O)n1Cc1ccccc1`, the EC50 is > 120 µM (not active) in test [1], 39.3 µM (active) in [2] and > 120 µM (not active) in test [3].

Consider `CC(C)CCn1cnc2c(c1=O)c1nc3ccccc3nc1n2Cc1ccc2c(c1)OCO2`, for which the EC50 in test [1], in test [2] and in test [3] was > 120 µM (not active) each time.

As for `O=C(COCC(=O)Nc1cccc(C(F)(F)F)c1)Nc1cccc(C(F)(F)F)c1`, the AC50 in test [4] is 5.16 µM (active).

Regarding `COc1ccc(-c2nc3cnc(N4CCNCC4)nc3n(CCC#N)c2=O)cc1`, the AC50 was 15.8 µM (inconclusive) at Cytochrome P450 1A2 and 12.6 µM (inconclusive) on Cytochrome P450 3A4.

The term CC50 denotes the concentration at which the toxic effect on the cells reaches its halfway point. Regarding `CC(C)(C)NC(=O)C(c1ccncc1)N(Cc1ccc(F)cc1)C(=O)c1ccc(-c2ccccc2)[nH]1` (centres undefined), the EC50 is 0.681 µM (active) in [6] and > 60 µM (inconclusive) in test [8]. In addition, in test [7], the CC50 was 14.6 µM (active).

In the case of `Cc1ccc(-c2csc(NC(=S)NC(=O)/C=C/c3ccco3)n2)cc1`, the AC50 at Cytochrome P450 3A4 was 15.8 µM (inconclusive); at Cytochrome P450 2C9, 0.282 µM (inconclusive).

`CC(C)C(=O)Nc1cc2c(cc1C(=O)c1ccccc1)OCCO2`: the AC50 on Cytochrome P450 3A4 was 22.4 µM (inconclusive).

For `CCOc1ccc(N(C(C)C(=O)NC(C)CC)S(C)(=O)=O)cc1` (centres undefined), the AC50 at Cytochrome P450 3A4 is 14.1 µM (inconclusive); at Cytochrome P450 2C19, 7.94 µM (inconclusive).

As for `O=C1C(Cc2ccccc2)NC(=S)N1c1ccccc1` (centres undefined), the AC50 at Cytochrome P450 1A2 and on Cytochrome P450 3A4 was 2.24 µM (inconclusive) each time.

On to `CCOC(=O)c1c(NC=C2C(=O)CCCC2=O)sc(C)c1C`, for which the IC50 in test [5] was 102 µM (active).

Turning to `Nc1ccc(Sc2ccc(N)cc2)cc1` [4,4'-THIODIANILINE], the IC50 in test [5] was 13.2 µM (active).

Consider `Cc1cc(NCCCn2ccnc2)n2nc(C)c(-c3ccc(Cl)cc3)c2n1`, for which the AC50 in [4] was 6.35 µM (active).

Regarding `O=C(/C=C/c1ccc(O)c(O)c1)OC(Cc1ccc(O)c(O)c1)C(=O)O` (centres undefined), the EC50 is 13.6 µM (active) in test [9] and 8.75 µM (active) in test [10]. The IC50 in [5] was 35 µM (active).

For the compound `COC(=O)CCNCCSc1nnc(-c2ccco2)n1Cc1ccccc1`, in test [5], the IC50 is 98.5 µM (active).

Consider `Cc1c(C(=O)N/N=C/c2ccccc2)sc(=S)n1C`, for which the AC50 at Cytochrome P450 3A4 is 25.1 µM (inconclusive); on Cytochrome P450 2C19 it was 25.1 µM (inconclusive); at Cytochrome P450 2D6, 0.01 µM (inconclusive).

For `CCN(CC)Cc1c(C(=O)N/N=C/c2cccc(OCc3cccc(Cl)c3)c2)nnn1-c1nonc1N`, the CC50 in [7] was 18.3 µM (active).

Take `COc1ccc(/C=N/NC(=S)NC2CCS(=O)(=O)C2)cc1OC` (centres undefined): at Cytochrome P450 3A4, the AC50 is 22.4 µM (inconclusive).

As to `CCOC(=O)C1=C(C)N2C(=C(C#N)[C@@H]1c1ccc(C(=O)OC)cc1)SC[C@@]2(O)C(C)(C)C`, in test [4], the AC50 was 0.33 µM (active).

For the compound `CCOc1cc(/C=N/Nc2nc(O)nnc2C)ccc1O`, the IC50 in test [5] was 40.2 µM (active).

With `COc1cc(/C(C)=N\NC(=O)CSc2nc3ccccc3n2C)ccc1O`, the IC50 in [5] was 41.6 µM (active).

For `CCOC(=O)c1ccc(-c2ccc(/C=N/NC(=O)c3cncc(Br)c3)o2)cc1`, the EC50 in the test on H4 was 117 µM (active).

As to `C=CCC(C)(NCc1ccccc1)c1ccco1` (centres undefined), the AC50 was 15.8 µM (inconclusive) at Cytochrome P450 3A4 and 0.0355 µM (inconclusive) at Cytochrome P450 2C9.

For the compound `CCOc1ccccc1C1CC(c2cccc(NS(C)(=O)=O)c2)=NN1C(=O)c1ccccc1` (centres undefined), the CC50 in test [7] is 35.5 µM (active).

`COc1ccc(/C=C\C(=O)Nc2ccccc2C(=O)O)cc1OC`: the results for the AC50 on Cytochrome P450 1A2, on Cytochrome P450 3A4 and on Cytochrome P450 2C9 were 39.8 µM (inconclusive), 39.8 µM (inconclusive) and 15.8 µM (inconclusive), respectively.

Regarding `Cc1ccc(C(=O)NC2CCCCCC2)cc1N1CCCC1=O`, the AC50 at Cytochrome P450 3A4 and on Cytochrome P450 2C9 was 25.1 µM (inconclusive) throughout.

With `O=C(Nc1ccc(-c2csc(Nc3cccc(C(F)(F)F)c3)n2)cc1)c1ccccc1`, the EC50 in [6] was 0.859 µM (active); in test [8], 7.93 µM (active). Further, in test [7], the CC50 is 17.2 µM (active). The AC50 in [4] was 1.54 µM (active).

Take `Cc1nc(SCc2ccccc2F)c2cnn(-c3ccccc3)c2n1`: in test [7], the CC50 was 28.5 µM (active).

As to `Nc1nc(SCc2ccc([N+](=O)[O-])cc2)c2ncn([C@@H]3O[C@@H](CO)[C@@H](O)[C@H]3O)c2n1`, at Cytochrome P450 3A4, the AC50 was 15.8 µM (inconclusive).

As for `CCc1ccccc1NS(=O)(=O)c1ccc(OC)c2ncccc12`, the CC50 in test [7] is 16 µM (active).

As for `O=C(NCCCN1CCCC1=O)Nc1ccc(F)c(Cl)c1`, the AC50 at Cytochrome P450 1A2 was 22.4 µM (inconclusive); on Cytochrome P450 3A4, 28.2 µM (inconclusive); on Cytochrome P450 2C19, 39.8 µM (inconclusive).

For `Nc1ccc(C(=O)n2c3ccccc3c3ccccc32)cc1`, the EC50 in test [1] was 9.05 µM (active); in test [2], 9.6 µM (active).
